Laboratory results: patent publication US8501943B2, “Sodium salt of 5-cyclopropyl-2-{[2-(2,6-difluorophenyl)pyrimidin-5-yl]amino}benzoic acid as DHODH inhibitor” (Almirall, S.A., priority 2009, dated 2013)
Counter-ions that a name gives are not always drawn.

Tests used:
Assay type in all cases: physicochemical
[1] = Crystallisation tests of salts with pharmaceutically acceptable bases; conditions: for Solid form obtained: salt crystallisation tests
Description: Crystallisation tests of salts of 5-cyclopropyl-2-{[2-(2,6-difluorophenyl)pyrimidin-5-yl]amino}benzoic acid with a broad range of pharmaceutically acceptable bases (comprising among others ammonia, L-arginine, choline, lysine, magnesium methoxide, meglumine, potassium methoxide and sodium hydroxide) in a range of different pharmaceutically acceptable solvents (including among others acetone, acetonitrile, ethyl acetate, chloroform, N,N-dimethylformamide, ethanol, isopropanol, nitromethane, dimethyl carbonate, methanol, methyl tert-butyl ether, tetrahydrofurane, diisopropyl ether, cyclohexane, butanol, water, 3-pentanone, toluene, chlorobenzene and isobutyl acetate) have been undertaken.
The salts from L-arginine, choline, magnesium methoxide and potassium methoxide were crystalline but hygroscopic. Additionally, some of said salts have different polymorphic phases.

[2] = Differential scanning calorimetry (DSC) thermogram; conditions: heated 30 to 350° C. at 10° C./min
Method: The differential scanning calorimetry (DSC) thermograms analyses were obtained using a DSC-821 Mettler-Toledo instrument, serial number 5117423874. Samples were weighed into an aluminium pan, an aluminium lid placed on top of the sample and compressed with a brass rod. Samples were equilibrated at 30° C. and heated at 10° C./min to 350° C. The instrument was calibrated using indium and zinc standards.
FIG. 1 illustrates the DSC thermogram of the sodium salt of 5-cyclopropyl-2-{[2-(2,6-difluorophenyl)pyrimidin-5-yl]amino}benzoic acid.

[3] = Water-solubility test; conditions: 25° C. (room temperature), expressed as acid
Method: The solubility of Example 1 in water at room temperature was determined together with the solubility of the corresponding free acids.

[4] = Dynamic Vapour Sorption (DVS) profile; conditions: 25° C.
Method: Dynamic Vapour Sorption (DVS) profiles were obtained using an Igasorp Hiden Isochema instrument (serial number IGA-SA-066). After an initial stabilization period, at least two isotherms (at 25° C.) were obtained for each sample: a moisture sorption from 0 to 95% relative humidity and moisture desorption from 95% relative humidity to dryness. Both isotherms were performed in 10% humidity steps, with a minimum time of 10 minutes and a maximum time of 30 minutes for each step.
FIG. 2 illustrates the DVS pattern of the sodium salt of 5-cyclopropyl-2-{[2-(2,6-difluorophenyl)pyrimidin-5-yl]amino}benzoic acid. Mass increase was measured at 80% (0.7% increase) and 90% (4.2% increase) relative humidity (RH).

| SMILES | Hygroscopicity / deliquescence of the salt [1] | Solid form obtained [1] | other results |
| --- | --- | --- | --- |
| O=C([O-])c1cc(C2CC2)ccc1Nc1cnc(-c2c(F)cccc2F)nc1.[K+] [salt from potassium methoxide] | hygroscopic | crystalline |  |
| CNCC(O)C(O)C(O)C(O)CO.O=C(O)c1cc(C2CC2)ccc1Nc1cnc(-c2c(F)cccc2F)nc1 [salt from meglumine] |  | either oils or amorphous solids |  |
| C[N+](C)(C)CCO.O=C([O-])c1cc(C2CC2)ccc1Nc1cnc(-c2c(F)cccc2F)nc1 [salt from choline] | hygroscopic | crystalline |  |
| O=C(O)c1cc(C2CC2)ccc1Nc1cnc(-c2c(F)cccc2F)nc1 [Ex. 1, 5-cyclopropyl-2-{[2-(2,6-difluorophenyl)pyrimidin-5-yl]amino}benzoic acid, sodium salt] | neither hygroscopic nor deliquescent |  | Thermal stability (decomposition) by DSC [2]: does not suffer any decomposition at low-medium temperatures; Water Solubility @ 25° C. (mg/mL as acid) ([3]; sodium salt): 1.87 mg/mL; Mass increase (DVS) ([4]; 80% relative humidity): 0.7%; Mass increase (DVS) ([4]; 90% relative humidity): 4.2%; Hygroscopicity according to DVS ([4]; sorption 0 to 95% RH): not hygroscopic; Hysteresis in DVS sorption/desorption ([4]; sorption/desorption isotherms): no hysteresis |
| NCCCCC(N)C(=O)O.O=C(O)c1cc(C2CC2)ccc1Nc1cnc(-c2c(F)cccc2F)nc1 [salt from lysine] |  | either oils or amorphous solids |  |
| N=C(N)NCCCC(N)C(=O)O.O=C(O)c1cc(C2CC2)ccc1Nc1cnc(-c2c(F)cccc2F)nc1 [salt from L-arginine] | hygroscopic | crystalline |  |
| O=C(O)c1cc(C2CC2)ccc1Nc1cnc(-c2c(F)cccc2F)nc1 [Example C1, 5-cyclopropyl-2-{[2-(2,6-difluorophenyl)pyrimidin-5-yl]amino}benzoic acid] |  |  | Water Solubility @ 25° C. (mg/mL as acid) [3]: 0.03 mg/mL |
